Data reported in BindingDB's records for doi:10.1016/0922-4106(94)90227-5 (Novo Nordisk, 1994).

Columns and labels:
[1] = target: Metabotropic glutamate receptor 1 (Rattus norvegicus, UniProt P23385)
[2] = target: Metabotropic glutamate receptor 4 (Rattus norvegicus, UniProt P31423)
[3] = target: Glutamate receptor ionotropic, NMDA 1 (Rattus norvegicus, UniProt P35439)
[4] = target: Metabotropic glutamate receptor 2 (Homo sapiens, UniProt Q14416)
[5] = target: Glutamate receptor ionotropic, kainate 1 (Rattus norvegicus, UniProt P22756)
Glutamate receptor 3 = Glutamate receptor 3 (Rattus norvegicus, UniProt P19492)

Measured: Ki

Sequence of Glutamate receptor ionotropic, kainate 1 (P22756 whole entry): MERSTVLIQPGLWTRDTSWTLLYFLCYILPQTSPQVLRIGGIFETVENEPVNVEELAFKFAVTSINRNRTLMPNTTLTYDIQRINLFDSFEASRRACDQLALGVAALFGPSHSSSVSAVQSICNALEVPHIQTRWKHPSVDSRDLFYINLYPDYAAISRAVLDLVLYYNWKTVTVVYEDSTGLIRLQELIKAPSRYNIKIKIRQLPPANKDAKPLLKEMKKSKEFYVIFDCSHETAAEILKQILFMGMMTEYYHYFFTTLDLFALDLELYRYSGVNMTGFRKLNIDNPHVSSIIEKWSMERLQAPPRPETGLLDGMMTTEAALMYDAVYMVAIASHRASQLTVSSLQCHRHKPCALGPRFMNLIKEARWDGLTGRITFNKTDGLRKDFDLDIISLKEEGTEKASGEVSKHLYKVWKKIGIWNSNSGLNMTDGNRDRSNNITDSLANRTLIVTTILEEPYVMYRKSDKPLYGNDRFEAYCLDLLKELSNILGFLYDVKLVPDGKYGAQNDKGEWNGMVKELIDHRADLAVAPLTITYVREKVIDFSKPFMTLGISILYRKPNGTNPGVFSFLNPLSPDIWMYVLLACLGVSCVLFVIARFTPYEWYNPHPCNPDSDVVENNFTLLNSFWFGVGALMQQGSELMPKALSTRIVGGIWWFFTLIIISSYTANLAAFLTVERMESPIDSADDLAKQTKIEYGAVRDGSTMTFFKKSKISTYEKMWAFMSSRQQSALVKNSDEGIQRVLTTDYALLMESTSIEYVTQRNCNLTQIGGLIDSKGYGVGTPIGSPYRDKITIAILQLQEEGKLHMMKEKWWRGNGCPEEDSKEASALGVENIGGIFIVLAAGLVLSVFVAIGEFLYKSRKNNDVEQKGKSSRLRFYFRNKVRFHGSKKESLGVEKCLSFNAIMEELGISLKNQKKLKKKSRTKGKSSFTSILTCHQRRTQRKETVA
Sequence of Glutamate receptor 3 (P19492 whole entry): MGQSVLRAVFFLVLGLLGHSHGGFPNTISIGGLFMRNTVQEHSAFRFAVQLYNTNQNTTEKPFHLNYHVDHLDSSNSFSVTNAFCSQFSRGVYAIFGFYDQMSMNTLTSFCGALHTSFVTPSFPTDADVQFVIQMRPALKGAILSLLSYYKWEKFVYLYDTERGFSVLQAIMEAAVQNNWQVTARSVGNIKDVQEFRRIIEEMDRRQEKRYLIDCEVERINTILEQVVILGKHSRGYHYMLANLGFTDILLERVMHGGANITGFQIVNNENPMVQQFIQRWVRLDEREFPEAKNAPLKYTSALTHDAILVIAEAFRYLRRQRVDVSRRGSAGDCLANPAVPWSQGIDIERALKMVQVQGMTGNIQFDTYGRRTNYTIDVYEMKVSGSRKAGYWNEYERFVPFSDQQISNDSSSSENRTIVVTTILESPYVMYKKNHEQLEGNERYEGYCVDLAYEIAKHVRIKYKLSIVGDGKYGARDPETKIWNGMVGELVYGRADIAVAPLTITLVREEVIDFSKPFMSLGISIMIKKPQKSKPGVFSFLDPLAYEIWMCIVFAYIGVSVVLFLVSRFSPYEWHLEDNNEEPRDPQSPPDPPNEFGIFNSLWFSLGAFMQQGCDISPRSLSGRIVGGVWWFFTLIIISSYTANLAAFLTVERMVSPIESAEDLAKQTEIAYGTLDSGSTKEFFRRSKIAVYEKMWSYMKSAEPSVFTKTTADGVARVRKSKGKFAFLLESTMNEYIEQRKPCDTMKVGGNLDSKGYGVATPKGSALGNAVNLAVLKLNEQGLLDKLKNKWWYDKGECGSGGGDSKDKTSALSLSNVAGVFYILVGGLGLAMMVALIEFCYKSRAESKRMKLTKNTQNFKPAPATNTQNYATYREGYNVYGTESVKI
Sequence of Metabotropic glutamate receptor 1 (P23385 whole entry): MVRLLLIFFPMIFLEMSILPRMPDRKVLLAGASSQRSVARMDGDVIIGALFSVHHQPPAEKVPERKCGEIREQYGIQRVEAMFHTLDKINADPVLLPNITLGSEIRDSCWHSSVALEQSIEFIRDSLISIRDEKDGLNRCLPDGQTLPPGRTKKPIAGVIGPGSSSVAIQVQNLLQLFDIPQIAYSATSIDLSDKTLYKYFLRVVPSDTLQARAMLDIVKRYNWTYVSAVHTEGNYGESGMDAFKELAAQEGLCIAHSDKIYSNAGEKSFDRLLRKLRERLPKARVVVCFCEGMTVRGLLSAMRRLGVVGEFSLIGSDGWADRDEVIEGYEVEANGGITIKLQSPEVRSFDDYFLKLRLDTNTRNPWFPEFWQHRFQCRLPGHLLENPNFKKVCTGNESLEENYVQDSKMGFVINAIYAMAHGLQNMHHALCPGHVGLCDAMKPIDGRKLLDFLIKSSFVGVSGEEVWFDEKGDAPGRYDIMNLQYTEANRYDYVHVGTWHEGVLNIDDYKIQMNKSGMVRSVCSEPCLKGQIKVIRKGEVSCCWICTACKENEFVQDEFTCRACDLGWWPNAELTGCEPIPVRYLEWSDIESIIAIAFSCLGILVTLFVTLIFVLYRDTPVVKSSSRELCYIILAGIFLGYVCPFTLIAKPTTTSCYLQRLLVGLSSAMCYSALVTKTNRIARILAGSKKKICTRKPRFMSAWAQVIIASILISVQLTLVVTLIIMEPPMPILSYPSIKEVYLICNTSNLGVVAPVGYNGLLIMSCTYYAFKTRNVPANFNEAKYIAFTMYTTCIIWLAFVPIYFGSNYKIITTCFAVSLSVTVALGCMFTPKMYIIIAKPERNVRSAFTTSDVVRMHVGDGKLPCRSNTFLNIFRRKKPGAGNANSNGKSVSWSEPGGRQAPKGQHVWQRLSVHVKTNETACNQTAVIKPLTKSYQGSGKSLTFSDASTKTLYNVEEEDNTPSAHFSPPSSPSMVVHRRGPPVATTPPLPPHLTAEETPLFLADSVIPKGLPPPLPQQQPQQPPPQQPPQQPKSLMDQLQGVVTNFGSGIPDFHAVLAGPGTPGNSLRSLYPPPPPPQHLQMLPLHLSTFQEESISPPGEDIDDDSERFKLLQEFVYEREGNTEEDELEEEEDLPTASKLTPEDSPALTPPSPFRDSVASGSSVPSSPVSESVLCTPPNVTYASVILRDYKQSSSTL
Sequence of Metabotropic glutamate receptor 4 (P31423 whole entry): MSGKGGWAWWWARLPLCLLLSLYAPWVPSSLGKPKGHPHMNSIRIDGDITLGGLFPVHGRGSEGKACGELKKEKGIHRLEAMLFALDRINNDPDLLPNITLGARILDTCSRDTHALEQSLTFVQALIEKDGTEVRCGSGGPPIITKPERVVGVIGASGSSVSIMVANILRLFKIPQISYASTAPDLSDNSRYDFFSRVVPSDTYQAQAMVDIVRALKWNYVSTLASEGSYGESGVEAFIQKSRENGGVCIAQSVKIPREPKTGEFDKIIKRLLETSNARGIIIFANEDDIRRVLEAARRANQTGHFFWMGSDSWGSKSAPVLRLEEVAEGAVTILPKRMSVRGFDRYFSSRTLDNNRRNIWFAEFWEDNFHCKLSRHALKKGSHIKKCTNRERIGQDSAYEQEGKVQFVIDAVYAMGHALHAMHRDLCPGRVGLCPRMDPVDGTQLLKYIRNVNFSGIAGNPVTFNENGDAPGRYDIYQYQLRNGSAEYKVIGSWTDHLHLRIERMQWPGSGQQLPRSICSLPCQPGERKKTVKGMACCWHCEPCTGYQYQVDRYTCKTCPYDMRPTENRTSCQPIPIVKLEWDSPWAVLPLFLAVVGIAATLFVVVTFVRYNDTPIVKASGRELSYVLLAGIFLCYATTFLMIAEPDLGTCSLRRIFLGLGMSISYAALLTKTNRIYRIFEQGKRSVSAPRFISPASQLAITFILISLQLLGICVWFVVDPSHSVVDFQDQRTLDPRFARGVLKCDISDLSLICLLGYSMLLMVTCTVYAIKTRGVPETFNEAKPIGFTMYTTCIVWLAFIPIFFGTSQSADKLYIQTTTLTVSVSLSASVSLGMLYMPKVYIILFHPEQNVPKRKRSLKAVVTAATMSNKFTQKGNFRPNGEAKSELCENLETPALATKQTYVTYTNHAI
Sequence of Metabotropic glutamate receptor 2 (Q14416 whole entry): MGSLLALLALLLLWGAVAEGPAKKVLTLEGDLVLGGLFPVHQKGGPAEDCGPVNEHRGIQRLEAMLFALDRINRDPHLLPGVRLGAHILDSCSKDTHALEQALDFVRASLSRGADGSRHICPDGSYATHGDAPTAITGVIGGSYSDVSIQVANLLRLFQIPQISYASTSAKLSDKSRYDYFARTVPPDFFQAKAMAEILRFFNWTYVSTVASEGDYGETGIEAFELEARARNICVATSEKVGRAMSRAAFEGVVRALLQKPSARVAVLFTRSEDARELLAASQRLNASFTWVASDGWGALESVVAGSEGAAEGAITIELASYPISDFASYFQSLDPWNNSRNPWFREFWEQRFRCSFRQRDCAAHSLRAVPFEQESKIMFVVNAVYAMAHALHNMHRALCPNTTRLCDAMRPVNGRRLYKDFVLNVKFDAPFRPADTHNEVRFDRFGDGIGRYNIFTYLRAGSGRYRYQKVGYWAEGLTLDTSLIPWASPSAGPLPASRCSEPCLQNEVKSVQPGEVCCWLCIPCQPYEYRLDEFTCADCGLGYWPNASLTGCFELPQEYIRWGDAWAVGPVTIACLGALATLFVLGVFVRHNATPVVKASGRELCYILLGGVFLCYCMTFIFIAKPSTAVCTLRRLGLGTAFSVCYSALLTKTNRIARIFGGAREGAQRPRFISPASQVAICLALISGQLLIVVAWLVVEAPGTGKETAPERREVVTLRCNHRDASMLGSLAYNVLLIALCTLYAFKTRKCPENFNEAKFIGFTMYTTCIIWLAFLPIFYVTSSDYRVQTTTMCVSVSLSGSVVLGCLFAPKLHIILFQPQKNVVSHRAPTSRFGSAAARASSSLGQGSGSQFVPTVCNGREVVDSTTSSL

N[C@@H](C(=O)O)c1ccc(O)c(C(=O)O)c1 [CB7394016]
> 10 µM: [1] | [2] | [3] | [4] | [5]

N[C@H](C(=O)O)c1ccc(O)c(C(=O)O)c1 [3C4HPG]
> 10 µM: [1] | [2] | [3] | Glutamate receptor 3 | [4] | [5]

N[C@H](C(=O)O)c1ccc(C(=O)O)cc1 [4-((S)-Amino-carboxy-methyl)-benzoic acid]
> 10 µM: [1] | [2] | [3] | Glutamate receptor 3 | [4] | [5]

C[C@@](N)(C(=O)O)c1ccc(C(=O)O)cc1 (racemic)
> 10 µM: [1] | [2] | [3] | Glutamate receptor 3 | [4] | [5]

N[C@H](C(=O)O)c1cccc(O)c1 [(S)-3-Hydroxyphenylglycine]
> 10 µM: [1] | [2] | [3] | Glutamate receptor 3 | [4] | [5]

N[C@@H](C(=O)O)c1ccc(C(=O)O)cc1 [(S)-4CPG]
> 10 µM: [1] | [2] | [3] | Glutamate receptor 3 | [4] | [5]

N[C@@H](C(=O)O)c1cccc(O)c1 [(R)-3-Hydroxyphenylglyci]
> 10 µM: [1] | [2] | [3] | Glutamate receptor 3 | [4] | [5]

NC(C(=O)O)c1ccc(C(=O)O)cc1 (centres undefined) [4-(Amino-carboxy-methyl)-benzoic acid]
> 10 µM: [1] | [2] | [4]
